Experiment [1] has as its system A549. Put plainly: Antiproliferative activity against human A549 cells measured after 72 hrs by MTT assay. To be noted: A549, 72 h. Type of experiment: functional, cell-based. In general terms: Tetrazolium assays rely on reduction of a dye to a coloured formazan, in cell work by metabolically active cells.
Experiment [2] has as its system MDA-MB-231. Put plainly: Antiproliferative activity against human MDA-MB-231 cells measured after 72 hrs by MTT assay. The experiment is classed as functional, cell-based. To be noted: MDA-MB-231, 72 h.
The subject of experiment [3] is NCI-H2228. Put plainly: Antiproliferative activity against human NCI-H2228 cells measured after 72 hrs by MTT assay. To be noted: NCI-H2228, 72 h. The experiment is classed as functional, cell-based.
In experiment [4] the target is Autotaxin (Homo sapiens, UniProt Q13822). Put plainly: Inhibition of human C-terminal His6-tagged ATX beta expressed in Sf9 insect cells using FS-3 as substrate preincubated for 45 mins followed by substrate addition and measured at 1 min interval for 30 mins by fluorescence assay.
Experiment [5] relates to MCF7. Put plainly: Antiproliferative activity against human MCF7 cells measured after 72 hrs by MTT assay. Type of experiment: functional, cell-based. To be noted: MCF7, 72 h.

The source of these data is ChEMBL document CHEMBL4765354, “Structure guided design of potent indole-based ATX inhibitors bearing hydrazone moiety with tumor suppression effects” (Eur J Med Chem, 2020).

Structures are written as SMILES.

For orientation: IC50 means the concentration needed to halve the response being measured. Regarding `CCn1cc(/C(=N/Nc2nc3ccccc3s2)C(F)(F)F)c2cc(-c3nc(CN4CCC(O)CC4)cs3)ccc21`, the IC50 is 11 µM in experiment [1]; 0.31 µM in experiment [2]; 7.18 µM in experiment [3]; 0.0021 µM in experiment [4]; 0.43 µM in experiment [5].
Take `COc1ccc(-c2nc(N/N=C(/c3c(C)[nH]c4cc(F)c(N5CCN(CCN(C)C)CC5)cc34)C(F)(F)F)sc2C#N)cc1`: the IC50 in experiment [1] was more than 15 µM; in experiment [2] it was 1.23 µM; in experiment [3], 11.5 µM; in experiment [4], 0.167 µM; in experiment [5] it was 2.91 µM.
For the compound `Cn1cc(/C(=N/Nc2nc(-c3ccc(Cl)cc3)c(C#N)s2)C(F)(F)F)c2cc(-c3nc(CN4CCOCC4)cs3)ccc21`, the IC50 was 9.41 µM in experiment [1]; 2.72 µM in experiment [2]; more than 15 µM in experiment [3]; 2.97 µM in experiment [4]; 3.25 µM in experiment [5].
In the same order, the values of `Cn1cc(/C(=N/Nc2nc(-c3ccc(F)cc3)c(C#N)s2)C(F)(F)F)c2cc(-c3nc(CN4CCC(O)CC4)cs3)ccc21` are 9.21 µM, 4.51 µM, 9.65 µM, 1.72 µM and 4.83 µM.
Regarding `Cc1[nH]c2cc(F)c(N3CCN(CCN(C)C)CC3)cc2c1/C(=N/Nc1nc(-c2ccc(F)cc2)c(C#N)s1)C(F)(F)F`, the IC50 in experiment [1] is 13.4 µM; in experiment [2], 0.79 µM; in experiment [3], more than 15 µM; in experiment [4], 0.019 µM; in experiment [5], 1.01 µM.
